{"source": "patent US20050222258A1", "about": "“Pharmaceuticals comprising shikonins as active constituent” (priority 2003, published 2005)", "key": {"[1]": {"test_system": "HBsAg", "experiment": "microbe, parasite or virus in culture", "settings": "Hepatitis B virus, read-out: average inhibitory rate for HBsAg"}, "[2]": {"test_system": "HBeAg", "experiment": "microbe, parasite or virus in culture", "settings": "Hepatitis B virus, read-out: average inhibitory rate for HBeAg"}}}
{"smiles": "CC(C)=CCC(OC(=O)C=C(C)C)C1=CC(=O)c2c(O)ccc(O)c2C1=O", "note": "(stereo not drawn) [β,β-dimethylacrylshikonin]", "values": [{"measurement": "inhibition at 30 µg/mL", "setting": "[1]", "value": 96.3, "unit": "%"}, {"measurement": "inhibition at 30 µg/mL", "setting": "[2]", "value": 91.6, "unit": "%"}]}
